SMILES strings stand for the structures. Where a name gives a salt, the structure may show the parent alone.

The values that follow come from patent US20160237045A1, “SUBSTITUTED PHENYLALANINE DERIVATIVES” (BAYER PHARMA AKTIENGESELLSCHAFT, priority 2013, published 2016).

The subject of one assay is plasma. As to the kind of experiment: Determination of anticoagulatory activity: activated partial thromboplastin time (aPTT) in plasma. The note with it: in vitro in human and animal plasma (species of Table B not stated); C.K. Prest kit; 37° C., 3 minutes incubation. The procedure: a.4) Determination of Anticoagulatory Activity
The anticoagulatory activity of the test substances is determined in vitro in human and animal plasma (for example mouse, rat, rabbit, pig and dog plasma). To this end, blood is drawn off in a mixing ratio of sodium citrate/blood of 1:9 using a 0.11 molar sodium citrate solution as receiver. Immediately after the blood has been drawn off, it is mixed thoroughly and centrifuged at about 4000 g for 15 minutes. The supernatant is pipetted off.
The activated partial thromboplastin time (aPTT) is determined in the presence of varying concentrations of test substance or the corresponding solvent using a commercial test kit (C.K. Prest from Diagnostica Stago). The test compounds are incubated with the plasma and the PTT reagent (cephalin, kaolin) at 37° C. for 3 minutes. Coagulation is then started by addition of a 25 mM aqueous calcium chloride solution, and the time when coagulation occurs is determined. The concentration of test substance which brings about a 1.5-fold extension of the aPTT is determined.

The next assay has as its target T1, human factor XIa (Homo sapiens, UniProt P03951).
T1 construct: purchased Kordia
Kind of assay: Measurement of FXIa inhibition (fluorogenic peptide substrate Boc-Glu(OBzl)-Ala-Arg-AMC). The class given is biochemical. The conditions noted are these: factor XIa from Kordia 0.45 nM; 15 min preincubation; 30 min at 22° C.; fluorescence of AMC. The procedure:
a.1) Measurement of FXIa Inhibition
The factor XIa inhibition of the substances according to the invention is determined using a biochemical test system which utilizes the reaction of a peptidic factor XIa substrate to determine the enzymatic activity of human factor XIa. Here, factor XIa cleaves from the peptic factor XIa substrate the C-terminal aminomethylcoumarin (AMC), the fluorescence of which is measured. The determinations are carried out in microtitre plates.
Test substances are dissolved in dimethyl sulphoxide and serially diluted in dimethyl sulphoxide (3000 μM to 0.0078 μM; resulting final concentrations in the test: 50 μM to 0.00013 μM). In each case 1 μl of the diluted substance solutions is placed into the wells of white microtitre plates from Greiner (384 wells). Subsequently, the following are added successively: 20 μl of assay buffer (50 mmol/l Tris buffer pH 7.4; 100 mmol/l sodium chloride; 5 mmol/l calcium chloride; 0.1% bovine serum albumin) and 20 μl of factor XIa from Kordia (0.45 nM in assay buffer). After 15 min of incubation, the enzyme reaction is started by addition of 20 μl of the factor XIa substrate Boc-Glu(OBzl)-Ala-Arg-AMC dissolved in assay buffer (10 μM in assay buffer) from Bachem, the mixture is incubated at room temperature (22° C.) for 30 min and fluorescence is then measured (excitation: 360 nm, emission: 460 nm). The measured emissions of the test batches with test substance are compared to those of control batches without test substance (only dimethyl sulphoxide instead of test substance in dimethyl sulphoxide), and IC50 values are calculated from the concentration/activity relationships.

T1 sequence (P03951 388-625 limits assumed): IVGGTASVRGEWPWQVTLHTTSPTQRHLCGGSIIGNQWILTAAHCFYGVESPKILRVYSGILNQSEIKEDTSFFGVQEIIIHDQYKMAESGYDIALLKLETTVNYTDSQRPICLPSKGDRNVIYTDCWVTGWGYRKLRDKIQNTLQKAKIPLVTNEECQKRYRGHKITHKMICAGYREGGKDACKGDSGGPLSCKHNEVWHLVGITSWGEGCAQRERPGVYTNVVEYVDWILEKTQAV
T1 sequence (P03951 19-387 partner limits assumed): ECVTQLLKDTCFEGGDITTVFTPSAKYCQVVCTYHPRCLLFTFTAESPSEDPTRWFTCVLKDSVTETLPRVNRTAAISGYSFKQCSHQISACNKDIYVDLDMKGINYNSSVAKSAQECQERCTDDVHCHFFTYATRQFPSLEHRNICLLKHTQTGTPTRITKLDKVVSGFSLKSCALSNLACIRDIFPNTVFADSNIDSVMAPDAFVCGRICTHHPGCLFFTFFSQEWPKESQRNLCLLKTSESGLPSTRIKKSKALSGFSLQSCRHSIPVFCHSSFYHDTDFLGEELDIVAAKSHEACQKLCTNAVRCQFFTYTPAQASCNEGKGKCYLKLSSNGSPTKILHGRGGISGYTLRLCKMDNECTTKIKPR

Take `NC[C@H]1CC[C@H](C(=O)N[C@@H](Cc2ccc(-c3ccccc3S(=O)(=O)N3CCOCC3)cc2)C(=O)Nc2ccc(-c3nn[nH]n3)cc2)CC1` [Example 1, trans-4-(Aminomethyl)-N-[(2S)-3-[2′-(morpholin-4-ylsulphonyl)biphenyl-4-yl]-1-oxo-1-{[4-(2H-tetrazol-5-yl)phenyl]amino}propan-2-yl]cyclohexanecarboxamide hydrochloride]: in the assay on plasma, the “aPTT (concentration of test substance which brings about a 1.5-fold extension of the aPTT)” value was determined as 0.17 µmol/L. Besides, at human factor XIa, the IC50 – broadly, the concentration that inhibits the measured activity by half – worked out at 1.9 nM.
Consider `NC[C@H]1CC[C@H](C(=O)N[C@@H](Cc2ccc(-c3ccccc3C(=O)N3CCOCC3)cc2)C(=O)Nc2ccc(-c3nn[nH]n3)cc2)CC1` [Example 2, trans-4-(Aminomethyl)-N-[(2S)-3-[2′-(morpholin-4-ylcarbonyl)biphenyl-4-yl]-1-oxo-1-{[4-(2H-tetrazol-5-yl)phenyl]amino}propan-2-yl]cyclohexanecarboxamide hydrochloride], for which the “aPTT (concentration of test substance which brings about a 1.5-fold extension of the aPTT)” value in the assay on plasma came to 0.03 µmol/L. This molecule also had an IC50 against human factor XIa of 2.8 nM.
On the same counts, the results for `CCN(CC)C(=O)c1ccccc1-c1ccc(C[C@H](NC(=O)[C@H]2CC[C@H](CN)CC2)C(=O)Nc2ccc(-c3nn[nH]n3)cc2)cc1` [Example 3, 4′-[(2S)-2-({[trans-4-(Aminomethyl)cyclohexyl]carbonyl}amino)-3-oxo-3-{[4-(2H-tetrazol-5-yl)phenyl]amino}propyl]-N,N-diethylbiphenyl-2-carboxamide hydrochloride] are 0.12 µmol/L and 0.7 nM.
As to `NC[C@H]1CC[C@H](C(=O)N[C@@H](Cc2ccc(-c3ccccc3C(=O)N3CCCCC3)cc2)C(=O)Nc2ccc(-c3nn[nH]n3)cc2)CC1` [Example 4, trans-4-(Aminomethyl)-N-[(2S)-1-oxo-3-[2′-(piperidin-1-ylcarbonyl)biphenyl-4-yl]-1-{[4-(2H-tetrazol-5-yl)phenyl]amino}propan-2-yl]cyclohexanecarboxamide hydrochloride], in the assay with plasma, the “aPTT (concentration of test substance which brings about a 1.5-fold extension of the aPTT)” value was determined as 0.07 µmol/L. This molecule also came in with an IC50 against human factor XIa of 1.3 nM.
On the same counts, the results for `NC[C@H]1CC[C@H](C(=O)N[C@@H](Cc2ccc(-c3ccccc3C(=O)N3CCNCC3)cc2)C(=O)Nc2ccc(-c3nn[nH]n3)cc2)CC1` [Example 5, trans-4-(Aminomethyl)-N-[(2S)-1-oxo-3-[2′-(piperazin-1-ylcarbonyl)biphenyl-4-yl]-1-{[4-(2H-tetrazol-5-yl)phenyl]amino}propan-2-yl]cyclohexanecarboxamide hydrochloride] are 0.32 µmol/L and 11 nM.
With `NC[C@H]1CC[C@H](C(=O)N[C@@H](Cc2ccc(-c3ccccc3C(=O)NC3CCNCC3)cc2)C(=O)Nc2ccc(-c3nn[nH]n3)cc2)CC1` [Example 6, 4′-[(2S)-2-({[trans-4-(Aminomethyl)cyclohexyl]carbonyl}amino)-3-oxo-3-{[4-(2H-tetrazol-5-yl)phenyl]amino}propyl]-N-(piperidin-4-yl)biphenyl-2-carboxamide hydrochloride], the “aPTT (concentration of test substance which brings about a 1.5-fold extension of the aPTT)” value in the assay on plasma was 0.57 µmol/L. Further, the IC50 at human factor XIa was 39 nM.
On the same counts, the results for `CNC(=O)c1ccccc1-c1ccc(C[C@H](NC(=O)[C@H]2CC[C@H](CN)CC2)C(=O)Nc2ccc(-c3nn[nH]n3)cc2)cc1` [Example 7, 4′-[(2S)-2-({[trans-4-(Aminomethyl)cyclohexyl]carbonyl}amino)-3-oxo-3-{[4-(2H-tetrazol-5-yl)phenyl]amino}propyl]-N-methylbiphenyl-2-carboxamide hydrochloride] are 0.61 µmol/L and 12 nM.
On the same counts, the results for `NC[C@H]1CC[C@H](C(=O)N[C@@H](Cc2ccc(-c3ccccc3N)cc2)C(=O)Nc2ccc(-c3nn[nH]n3)cc2)CC1` [Example 8, trans-N-[(2S)-3-(2′-Aminobiphenyl-4-yl)-1-oxo-1-{[4-(2H-tetrazol-5-yl)phenyl]amino}propan-2-yl]-4-(aminomethyl)cyclohexanecarboxamide hydrochloride] are 0.24 µmol/L and 5.5 nM.
For `NCC(=O)NCC(=O)NCC(=O)Nc1ccccc1-c1ccc(C[C@H](NC(=O)[C@H]2CC[C@H](CN)CC2)C(=O)Nc2ccc(-c3nn[nH]n3)cc2)cc1` [Example 9, Glycylglycyl-N-{4′-[(2S)-2-({[trans-4-(aminomethyl)cyclohexyl]carbonyl}amino)-3-oxo-3-{[4-(2H-tetrazol-5-yl)phenyl]amino}propyl]biphenyl-2-yl}glycinamide hydrochloride] the same measures were 0.12 µmol/L and 5.3 nM.
On to `CN(C)CC(=O)Nc1ccccc1-c1ccc(C[C@H](NC(=O)[C@H]2CC[C@H](CN)CC2)C(=O)Nc2ccc(-c3nn[nH]n3)cc2)cc1` [Example 10, trans-4-(Aminomethyl)-N-[(2S)-3-(2′-{[(dimethylamino)acetyl]amino}biphenyl-4-yl)-1-oxo-1-{[4-(2H-tetrazol-5-yl)phenyl]amino}propan-2-yl]cyclohexanecarboxamide hydrochloride], for which, in the assay with plasma, the “aPTT (concentration of test substance which brings about a 1.5-fold extension of the aPTT)” value came out at 0.23 µmol/L. This molecule also registered an IC50 against human factor XIa of 7.2 nM.
For the molecule `NC[C@H]1CC[C@H](C(=O)N[C@@H](Cc2ccc(-c3ccccc3NC(=O)C3CCOCC3)cc2)C(=O)Nc2ccc(-c3nn[nH]n3)cc2)CC1` [Example 11, N-{4′-[(2S)-2-({[trans-4-(Aminomethyl)cyclohexyl]carbonyl}amino)-3-oxo-3-{[4-(2H-tetrazol-5-yl)phenyl]amino}propyl]biphenyl-2-yl}tetrahydro-2H-pyran-4-carboxamide hydrochloride], in the assay with plasma, the “aPTT (concentration of test substance which brings about a 1.5-fold extension of the aPTT)” value was 0.16 µmol/L. This molecule also showed an IC50 against human factor XIa of 3 nM.
On the same counts, the results for `NC[C@H]1CC[C@H](C(=O)N[C@@H](Cc2ccc(-c3ccccc3NC(=O)C3CCNCC3)cc2)C(=O)Nc2ccc(-c3nnn[nH]3)cc2)CC1` [Example 12, N-{4′-[(2S)-2-({[trans-4-(Aminomethyl)cyclohexyl]carbonyl}amino)-3-oxo-3-{[4-(1H-tetrazol-5-yl)phenyl]amino}propyl]biphenyl-2-yl}piperidine-4-carboxamide hydrochloride] are 0.29 µmol/L and 8.9 nM.
For `CC(=O)Nc1ccccc1-c1ccc(C[C@H](NC(=O)[C@H]2CC[C@H](CN)CC2)C(=O)Nc2ccc(-c3nn[nH]n3)cc2)cc1` [Example 13, trans-N-[(2S)-3-(2′-Acetamidobiphenyl-4-yl)-1-oxo-1-{[4-(2H-tetrazol-5-yl)phenyl]amino}propan-2-yl]-4-(aminomethyl)cyclohexanecarboxamide hydrochloride] the same measures were 0.18 µmol/L and 4 nM.
For `NC[C@H]1CC[C@H](C(=O)N[C@@H](Cc2ccc(-c3ccccc3CO)cc2)C(=O)Nc2ccc(-c3nn[nH]n3)cc2)CC1` [Example 14, trans-4-(Aminomethyl)-N-[(2S)-3-[2′-(hydroxymethyl)biphenyl-4-yl]-1-oxo-1-{[4-(2H-tetrazol-5-yl)phenyl]amino}propan-2-yl]cyclohexanecarboxamide hydrochloride] the same measures were 0.31 µmol/L and 4.2 nM.
On to `NC[C@H]1CC[C@H](C(=O)N[C@@H](Cc2ccc(-c3ccccc3C(N)=O)cc2)C(=O)Nc2ccc(-c3nc(C(F)(F)C(F)(F)C(=O)O)n[nH]3)cc2)CC1` [Example 15, 3-[5-(4-{[(2S)-2-({[trans-4-(Aminomethyl)cyclohexyl]carbonyl}amino)-3-(2′-carbamoylbiphenyl-4-yl)propanoyl]amino}phenyl)-1H-1,2,4-triazol-3-yl]-2,2,3,3-tetrafluoropropanoic acid hydrochloride], for which the “aPTT (concentration of test substance which brings about a 1.5-fold extension of the aPTT)” value in the assay with plasma was 0.23 µmol/L. This molecule also yielded an IC50 against human factor XIa of 12 nM.
